Active and inactive are the calls of the source. Cut-off read from the data, not from the text of the source, for most assays here: actives have a measured Kd and inactives only a lower limit.
Experiments:
[1] = biological target: T1, Peroxisomal acyl-coenzyme A oxidase 1 (Homo sapiens, UniProt Q15067)
T1 sequence (Q15067 whole entry): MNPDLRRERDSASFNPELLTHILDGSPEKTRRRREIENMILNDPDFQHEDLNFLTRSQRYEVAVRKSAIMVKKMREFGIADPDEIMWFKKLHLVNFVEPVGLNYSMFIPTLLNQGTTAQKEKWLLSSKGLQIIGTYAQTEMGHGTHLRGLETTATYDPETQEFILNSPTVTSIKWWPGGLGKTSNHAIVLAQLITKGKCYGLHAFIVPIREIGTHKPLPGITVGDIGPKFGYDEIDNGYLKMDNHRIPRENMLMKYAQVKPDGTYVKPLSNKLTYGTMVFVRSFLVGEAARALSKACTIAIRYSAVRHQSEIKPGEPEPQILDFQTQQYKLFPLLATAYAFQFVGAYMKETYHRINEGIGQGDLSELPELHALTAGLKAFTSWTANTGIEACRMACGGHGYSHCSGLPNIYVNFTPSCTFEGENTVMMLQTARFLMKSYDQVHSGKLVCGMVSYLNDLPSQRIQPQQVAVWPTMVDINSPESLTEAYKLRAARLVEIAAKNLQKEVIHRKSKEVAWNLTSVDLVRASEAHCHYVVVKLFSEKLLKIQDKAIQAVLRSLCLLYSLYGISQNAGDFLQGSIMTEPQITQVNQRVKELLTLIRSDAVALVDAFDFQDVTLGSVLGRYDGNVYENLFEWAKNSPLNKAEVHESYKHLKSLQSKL

[2] = biological target: T2, Calcium/calmodulin-dependent protein kinase type IV (Homo sapiens, UniProt Q16566)
T2 sequence (Q16566 whole entry): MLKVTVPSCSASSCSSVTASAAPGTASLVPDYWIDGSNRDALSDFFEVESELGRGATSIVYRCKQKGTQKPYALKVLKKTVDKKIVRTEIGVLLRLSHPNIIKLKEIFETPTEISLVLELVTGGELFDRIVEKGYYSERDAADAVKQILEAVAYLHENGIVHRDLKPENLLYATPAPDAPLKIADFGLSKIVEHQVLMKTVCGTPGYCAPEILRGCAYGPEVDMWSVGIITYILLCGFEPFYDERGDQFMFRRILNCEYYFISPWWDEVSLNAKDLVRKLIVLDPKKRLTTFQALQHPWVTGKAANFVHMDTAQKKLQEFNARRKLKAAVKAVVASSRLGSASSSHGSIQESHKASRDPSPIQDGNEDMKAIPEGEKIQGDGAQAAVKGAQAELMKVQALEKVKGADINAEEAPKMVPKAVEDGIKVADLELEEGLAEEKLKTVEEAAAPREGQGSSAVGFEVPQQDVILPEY

[3] = biological target: Cyclin-dependent kinase 7 (Homo sapiens, UniProt P50613)
Sequence of Cyclin-dependent kinase 7 (P50613 whole entry): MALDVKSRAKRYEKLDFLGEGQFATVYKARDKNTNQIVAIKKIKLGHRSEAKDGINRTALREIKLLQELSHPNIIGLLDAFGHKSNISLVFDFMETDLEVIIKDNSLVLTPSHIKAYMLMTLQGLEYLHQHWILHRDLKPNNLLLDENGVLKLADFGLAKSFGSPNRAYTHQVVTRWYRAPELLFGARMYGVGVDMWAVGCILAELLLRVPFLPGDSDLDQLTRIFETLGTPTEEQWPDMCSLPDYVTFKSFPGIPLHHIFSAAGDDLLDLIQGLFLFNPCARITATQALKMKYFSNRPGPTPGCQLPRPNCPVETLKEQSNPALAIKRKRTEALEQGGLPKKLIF

[4] = biological target: Dual specificity protein kinase CLK2 (Homo sapiens, UniProt P49760)
Sequence of Dual specificity protein kinase CLK2 (P49760 whole entry): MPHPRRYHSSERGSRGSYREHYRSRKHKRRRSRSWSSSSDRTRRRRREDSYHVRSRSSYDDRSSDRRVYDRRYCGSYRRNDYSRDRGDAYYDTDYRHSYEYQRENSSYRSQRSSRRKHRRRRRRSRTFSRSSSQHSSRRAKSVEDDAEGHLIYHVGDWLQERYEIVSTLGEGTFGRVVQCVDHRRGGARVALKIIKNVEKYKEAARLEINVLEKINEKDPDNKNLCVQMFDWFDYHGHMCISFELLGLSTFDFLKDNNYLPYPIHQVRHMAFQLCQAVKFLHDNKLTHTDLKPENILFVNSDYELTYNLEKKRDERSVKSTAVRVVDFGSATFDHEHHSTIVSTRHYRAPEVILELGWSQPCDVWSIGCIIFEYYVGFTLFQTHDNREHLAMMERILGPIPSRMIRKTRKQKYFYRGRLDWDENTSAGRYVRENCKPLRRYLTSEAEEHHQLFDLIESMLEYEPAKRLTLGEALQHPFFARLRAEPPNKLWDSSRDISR

Insulin receptor = Insulin receptor (Homo sapiens, UniProt P06213)
Sequence of Insulin receptor (P06213 28-758 limits assumed): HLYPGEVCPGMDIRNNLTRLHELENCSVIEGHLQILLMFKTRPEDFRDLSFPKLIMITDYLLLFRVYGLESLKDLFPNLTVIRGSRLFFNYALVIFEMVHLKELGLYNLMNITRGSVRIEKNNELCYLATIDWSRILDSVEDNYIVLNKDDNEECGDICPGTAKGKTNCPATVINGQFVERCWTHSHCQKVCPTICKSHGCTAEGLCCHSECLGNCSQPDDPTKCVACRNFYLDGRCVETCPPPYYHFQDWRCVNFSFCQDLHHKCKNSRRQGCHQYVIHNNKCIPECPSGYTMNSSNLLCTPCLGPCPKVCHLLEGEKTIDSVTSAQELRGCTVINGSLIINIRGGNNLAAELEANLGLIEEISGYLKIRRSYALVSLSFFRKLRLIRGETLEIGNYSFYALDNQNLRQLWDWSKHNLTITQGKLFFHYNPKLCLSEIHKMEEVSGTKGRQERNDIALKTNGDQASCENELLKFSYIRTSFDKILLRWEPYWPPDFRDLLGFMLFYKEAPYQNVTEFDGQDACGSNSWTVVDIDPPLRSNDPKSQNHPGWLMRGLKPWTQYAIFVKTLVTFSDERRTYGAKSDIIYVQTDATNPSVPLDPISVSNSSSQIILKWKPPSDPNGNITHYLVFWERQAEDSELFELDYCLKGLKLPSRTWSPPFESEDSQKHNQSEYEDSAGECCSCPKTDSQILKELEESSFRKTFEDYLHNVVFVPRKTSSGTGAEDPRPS
Sequence of Insulin receptor (P06213 763-1382 limits assumed): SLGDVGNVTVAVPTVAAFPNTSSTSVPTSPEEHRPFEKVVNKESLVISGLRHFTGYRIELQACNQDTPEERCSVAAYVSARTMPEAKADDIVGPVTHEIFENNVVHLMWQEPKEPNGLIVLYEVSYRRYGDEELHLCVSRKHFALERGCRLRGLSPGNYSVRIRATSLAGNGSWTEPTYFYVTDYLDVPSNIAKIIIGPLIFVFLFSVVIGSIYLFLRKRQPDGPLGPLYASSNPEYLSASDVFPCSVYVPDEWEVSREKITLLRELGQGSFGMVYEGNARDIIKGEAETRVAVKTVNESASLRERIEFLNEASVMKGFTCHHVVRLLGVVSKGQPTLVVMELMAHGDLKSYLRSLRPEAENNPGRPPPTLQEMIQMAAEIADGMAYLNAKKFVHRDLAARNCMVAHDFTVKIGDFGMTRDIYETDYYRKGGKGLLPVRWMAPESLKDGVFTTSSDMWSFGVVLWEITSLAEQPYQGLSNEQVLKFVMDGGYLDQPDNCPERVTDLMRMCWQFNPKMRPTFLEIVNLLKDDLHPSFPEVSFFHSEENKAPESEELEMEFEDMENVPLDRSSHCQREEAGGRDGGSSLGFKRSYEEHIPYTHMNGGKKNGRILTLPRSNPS

[5] = biological target: Tyrosine-protein kinase Lck (Homo sapiens, UniProt P06239)
Sequence of Tyrosine-protein kinase Lck (P06239 whole entry): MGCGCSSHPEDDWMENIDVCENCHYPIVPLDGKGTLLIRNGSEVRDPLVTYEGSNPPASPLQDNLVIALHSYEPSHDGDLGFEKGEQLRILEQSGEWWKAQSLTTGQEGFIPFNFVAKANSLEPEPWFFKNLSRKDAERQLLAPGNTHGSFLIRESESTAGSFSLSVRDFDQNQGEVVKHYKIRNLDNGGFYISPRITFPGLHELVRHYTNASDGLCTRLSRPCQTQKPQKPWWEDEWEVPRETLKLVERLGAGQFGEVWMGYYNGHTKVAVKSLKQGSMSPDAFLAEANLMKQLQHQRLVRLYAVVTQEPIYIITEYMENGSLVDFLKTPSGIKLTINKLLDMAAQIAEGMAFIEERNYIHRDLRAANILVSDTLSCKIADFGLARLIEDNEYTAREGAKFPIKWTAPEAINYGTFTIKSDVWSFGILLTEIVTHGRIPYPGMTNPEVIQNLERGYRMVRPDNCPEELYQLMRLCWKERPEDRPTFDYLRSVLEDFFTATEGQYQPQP

[6] = biological target: T3, NUAK family SNF1-like kinase 2 (Homo sapiens, UniProt Q9H093)
T3 sequence (Q9H093 whole entry): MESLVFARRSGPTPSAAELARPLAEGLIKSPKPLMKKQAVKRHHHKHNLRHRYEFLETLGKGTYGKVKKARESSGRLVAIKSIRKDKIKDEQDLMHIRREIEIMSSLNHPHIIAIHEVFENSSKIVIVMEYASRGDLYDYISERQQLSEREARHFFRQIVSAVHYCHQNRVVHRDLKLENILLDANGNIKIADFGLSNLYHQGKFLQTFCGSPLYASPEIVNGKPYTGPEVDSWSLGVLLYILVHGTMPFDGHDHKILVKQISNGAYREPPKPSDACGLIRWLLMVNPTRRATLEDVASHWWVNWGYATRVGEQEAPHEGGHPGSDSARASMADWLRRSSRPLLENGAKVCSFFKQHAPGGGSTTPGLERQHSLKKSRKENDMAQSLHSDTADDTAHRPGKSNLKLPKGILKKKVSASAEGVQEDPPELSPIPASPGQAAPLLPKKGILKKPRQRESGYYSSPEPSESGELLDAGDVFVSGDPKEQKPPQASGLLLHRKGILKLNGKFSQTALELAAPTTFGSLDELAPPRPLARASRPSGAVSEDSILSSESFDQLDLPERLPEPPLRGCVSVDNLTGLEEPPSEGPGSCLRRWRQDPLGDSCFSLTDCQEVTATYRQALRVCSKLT

[7] = biological target: T4, Ras-related protein Rab-27A (Homo sapiens, UniProt P51159)
T4 sequence (P51159 whole entry): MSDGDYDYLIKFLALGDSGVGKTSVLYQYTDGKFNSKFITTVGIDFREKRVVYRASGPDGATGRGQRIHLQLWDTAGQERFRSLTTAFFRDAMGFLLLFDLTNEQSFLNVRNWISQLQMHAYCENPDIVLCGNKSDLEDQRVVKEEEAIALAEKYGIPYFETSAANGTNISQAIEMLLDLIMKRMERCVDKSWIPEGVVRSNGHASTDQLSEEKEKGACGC

[8] = biological target: Ribosomal protein S6 kinase alpha-3 (Homo sapiens, UniProt P51812)
Sequence of Ribosomal protein S6 kinase alpha-3 (P51812 whole entry): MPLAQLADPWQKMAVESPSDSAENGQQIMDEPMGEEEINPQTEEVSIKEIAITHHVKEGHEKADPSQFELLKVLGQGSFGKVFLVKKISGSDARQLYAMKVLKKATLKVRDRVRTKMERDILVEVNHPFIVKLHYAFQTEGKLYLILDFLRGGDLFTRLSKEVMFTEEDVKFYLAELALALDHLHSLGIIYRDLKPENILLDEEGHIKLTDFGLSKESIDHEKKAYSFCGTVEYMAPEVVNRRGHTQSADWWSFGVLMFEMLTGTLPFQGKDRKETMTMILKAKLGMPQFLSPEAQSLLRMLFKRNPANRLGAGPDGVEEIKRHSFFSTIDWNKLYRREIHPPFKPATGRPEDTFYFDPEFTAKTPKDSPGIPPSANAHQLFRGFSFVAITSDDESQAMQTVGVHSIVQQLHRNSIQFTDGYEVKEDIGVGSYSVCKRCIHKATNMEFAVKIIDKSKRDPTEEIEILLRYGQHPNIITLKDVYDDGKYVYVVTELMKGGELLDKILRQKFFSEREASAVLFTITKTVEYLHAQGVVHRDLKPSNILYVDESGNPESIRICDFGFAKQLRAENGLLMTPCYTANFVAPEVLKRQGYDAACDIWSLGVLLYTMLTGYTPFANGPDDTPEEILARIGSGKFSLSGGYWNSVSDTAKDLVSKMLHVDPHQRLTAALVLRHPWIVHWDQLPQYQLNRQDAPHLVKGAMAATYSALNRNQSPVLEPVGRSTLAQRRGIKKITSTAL

[9] = biological target: T5, Uncharacterized protein FLJ45252 (Homo sapiens, UniProt Q6ZSR9); details: read-out: Kd apparent; k-562, colo 205, sk-n-be(2) and mv-4-11
T5 sequence (Q6ZSR9 whole entry): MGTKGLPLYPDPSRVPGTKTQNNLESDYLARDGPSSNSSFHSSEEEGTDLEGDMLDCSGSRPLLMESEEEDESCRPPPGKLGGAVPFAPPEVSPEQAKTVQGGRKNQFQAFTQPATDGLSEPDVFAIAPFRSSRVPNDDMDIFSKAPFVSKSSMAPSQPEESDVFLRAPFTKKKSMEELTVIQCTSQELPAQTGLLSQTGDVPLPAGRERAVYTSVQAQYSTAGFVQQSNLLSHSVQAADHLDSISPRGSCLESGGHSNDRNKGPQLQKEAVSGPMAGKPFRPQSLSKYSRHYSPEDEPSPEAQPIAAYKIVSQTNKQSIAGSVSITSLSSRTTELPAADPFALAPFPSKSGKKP

Measured: Kd
Note: in the data inactive means no Kd found up to 30 µM.

CO[C@H]1C[C@@H]2CC[C@@H](C)[C@@](O)(O2)C(=O)C(=O)N2CCCC[C@H]2C(=O)O[C@H]([C@H](C)C[C@@H]2CC[C@@H](OC(=O)C(C)(CO)CO)[C@H](OC)C2)CC(=O)[C@H](C)/C=C(\C)[C@@H](O)[C@@H](OC)C(=O)[C@H](C)C[C@H](C)/C=C/C=C/C=C/1C [TEMSIROLIMUS]
inactive: [1] > 30 µM | [2] > 30 µM | [3] > 30 µM | [4] > 30 µM | Insulin receptor > 30 µM | [5] > 30 µM | [6] > 30 µM | [7] > 30 µM | [8] > 30 µM | [9] > 30 µM

O=C(Cc1ccc(-c2ccc(OCCN3CCOCC3)cc2)cn1)NCc1ccccc1 [TIRBANIBULIN]
inactive: [1] > 30 µM | [2] > 30 µM | [3] > 30 µM | [4] > 30 µM | Insulin receptor > 30 µM | [5] > 30 µM | [6] > 30 µM | [7] > 30 µM | [8] > 30 µM | [9] > 30 µM

From ChEMBL document CHEMBL3991601, “The target landscape of clinical kinase drugs” (Science, 2017)
